Tests used:
[1] = biological target: Transient receptor potential cation channel subfamily A member 1 (Rattus norvegicus, UniProt Q6RI86); assay: Antagonist activity at rat TRPA1 expressed in HEK293F cells assessed as reduction in AITC-induced increase in intracellular Ca2+ level by FLIPR-based Ca2+ assay; assay type: cell-based
Homo sapiens [2] = species on record: Homo sapiens; assay: Inhibition of sodium channel (unknown origin) at 10 micromol/L by radioligand binding assay relative to control; conditions: dose 10.0 µmol/L
[3] = biological target: T1, Transient receptor potential cation channel subfamily A member 1 (Homo sapiens, UniProt O75762); assay: Antagonist activity at recombinant human TRPA1 expressed in HEK293F cells assessed as reduction in AITC-induced increase in intracellular Ca2+ level by FLIPR-based Ca2+ assay; assay type: cell-based
T1 sequence (O75762 whole entry): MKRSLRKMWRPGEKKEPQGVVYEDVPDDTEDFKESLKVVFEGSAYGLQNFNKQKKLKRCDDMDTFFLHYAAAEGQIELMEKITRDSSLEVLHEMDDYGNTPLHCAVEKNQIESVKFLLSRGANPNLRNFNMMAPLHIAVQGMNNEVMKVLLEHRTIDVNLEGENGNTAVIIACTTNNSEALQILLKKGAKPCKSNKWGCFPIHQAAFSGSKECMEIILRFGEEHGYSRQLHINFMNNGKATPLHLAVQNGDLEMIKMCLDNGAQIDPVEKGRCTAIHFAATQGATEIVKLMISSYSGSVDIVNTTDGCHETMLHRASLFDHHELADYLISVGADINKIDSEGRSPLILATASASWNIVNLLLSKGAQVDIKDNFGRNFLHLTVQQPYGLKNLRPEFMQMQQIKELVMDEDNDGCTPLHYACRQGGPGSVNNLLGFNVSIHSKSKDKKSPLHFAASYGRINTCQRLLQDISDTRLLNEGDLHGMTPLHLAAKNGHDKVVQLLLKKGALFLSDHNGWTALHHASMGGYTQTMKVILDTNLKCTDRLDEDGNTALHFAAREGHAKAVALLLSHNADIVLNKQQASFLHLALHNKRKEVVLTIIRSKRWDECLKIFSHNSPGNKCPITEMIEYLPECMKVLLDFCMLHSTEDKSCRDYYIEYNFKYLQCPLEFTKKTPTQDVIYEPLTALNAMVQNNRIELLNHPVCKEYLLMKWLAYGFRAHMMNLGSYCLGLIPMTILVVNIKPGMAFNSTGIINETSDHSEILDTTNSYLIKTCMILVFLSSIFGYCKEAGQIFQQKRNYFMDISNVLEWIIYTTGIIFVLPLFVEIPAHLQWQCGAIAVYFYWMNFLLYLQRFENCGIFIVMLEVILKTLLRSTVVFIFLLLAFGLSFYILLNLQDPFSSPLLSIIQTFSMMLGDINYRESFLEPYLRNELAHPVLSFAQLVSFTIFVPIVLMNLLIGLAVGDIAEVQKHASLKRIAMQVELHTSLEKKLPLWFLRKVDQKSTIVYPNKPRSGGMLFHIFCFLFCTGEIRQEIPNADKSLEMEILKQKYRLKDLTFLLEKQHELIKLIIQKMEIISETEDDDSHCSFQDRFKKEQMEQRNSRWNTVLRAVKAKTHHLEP

[4] = biological target: Cannabinoid receptor 2 (Homo sapiens) (UniProt P34972); assay: Inhibition of CB2 receptor (unknown origin) at 10 micromol/L by radioligand binding assay relative to control; conditions: dose 10.0 µmol/L
Cannabinoid receptor 2 (Homo sapiens), sequence (P34972 whole entry): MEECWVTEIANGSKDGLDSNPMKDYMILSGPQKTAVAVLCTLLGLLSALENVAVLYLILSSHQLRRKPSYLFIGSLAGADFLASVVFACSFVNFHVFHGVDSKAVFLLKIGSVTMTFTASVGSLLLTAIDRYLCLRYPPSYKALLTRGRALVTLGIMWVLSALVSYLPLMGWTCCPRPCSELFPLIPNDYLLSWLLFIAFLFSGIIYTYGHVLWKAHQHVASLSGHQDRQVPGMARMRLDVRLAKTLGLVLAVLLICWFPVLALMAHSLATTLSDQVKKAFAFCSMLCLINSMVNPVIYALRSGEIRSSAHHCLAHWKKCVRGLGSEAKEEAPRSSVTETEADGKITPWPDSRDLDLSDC

Homo sapiens [5] = species on record: Homo sapiens; assay: Inhibition of sigma receptor (unknown origin) at 10 micromol/L by radioligand binding assay relative to control; conditions: dose 10.0 µmol/L
[6] = Toxicity in Sprague-Dawley rat assessed as increase in body temperature at 3.88 mg/kg, po measured after 480 mins by radiotelemetric analysis; assay type: organism-based; conditions: in vivo, 8 h
[7] = Toxicity in Sprague-Dawley rat assessed as increase in body temperature at 1.16 mg/kg, po measured after 480 mins by radiotelemetric analysis; assay type: organism-based; conditions: in vivo, 8 h
[8] = Toxicity in Sprague-Dawley rat assessed as effect on tail withdrawal latency to hot water immersion at 55 degreeC at 11.6 mg/kg, po by tail immersion test; assay type: organism-based; conditions: in vivo
[9] = biological target: T1, Transient receptor potential cation channel subfamily A member 1; assay: Antagonist activity at TRPA1 (unknown origin)
Rattus norvegicus [10] = assay: Antiallodynic activity in spinal nerve ligation-induced neuropathic pain Sprague-Dawley rat model assessed as attenuation of mechanical allodynia at 100 mg/kg, po administered with compound for 1 hrs and measured 10 to 14 days after surgery relative to control; assay type: functional; conditions: time 241-337 hrs
Rattus norvegicus [11] = assay: Antiallodynic activity in CFA-induced mechanical allodynia Sprague-Dawley rat model assessed as attenuation of mechanical allodynia at 100 mg/kg, po administered with compound for 1 hrs and measured 48 hrs after CFA injection relative to control; assay type: functional; conditions: time 49 hrs
Rattus norvegicus [12] = assay: Antiallodynic activity in CCI-induced neuropathic pain Sprague-Dawley rat model assessed as attenuation of mechanical allodynia at 100 mg/kg, po administered with compound for 1 hrs and measured 10 to 14 days after surgery relative to control; assay type: functional; conditions: time 241-337 hrs

Transient receptor potential cation channel subfamily A member 1 (Rattus norvegicus, UniProt Q6RI86), sequence (Q6RI86 whole entry): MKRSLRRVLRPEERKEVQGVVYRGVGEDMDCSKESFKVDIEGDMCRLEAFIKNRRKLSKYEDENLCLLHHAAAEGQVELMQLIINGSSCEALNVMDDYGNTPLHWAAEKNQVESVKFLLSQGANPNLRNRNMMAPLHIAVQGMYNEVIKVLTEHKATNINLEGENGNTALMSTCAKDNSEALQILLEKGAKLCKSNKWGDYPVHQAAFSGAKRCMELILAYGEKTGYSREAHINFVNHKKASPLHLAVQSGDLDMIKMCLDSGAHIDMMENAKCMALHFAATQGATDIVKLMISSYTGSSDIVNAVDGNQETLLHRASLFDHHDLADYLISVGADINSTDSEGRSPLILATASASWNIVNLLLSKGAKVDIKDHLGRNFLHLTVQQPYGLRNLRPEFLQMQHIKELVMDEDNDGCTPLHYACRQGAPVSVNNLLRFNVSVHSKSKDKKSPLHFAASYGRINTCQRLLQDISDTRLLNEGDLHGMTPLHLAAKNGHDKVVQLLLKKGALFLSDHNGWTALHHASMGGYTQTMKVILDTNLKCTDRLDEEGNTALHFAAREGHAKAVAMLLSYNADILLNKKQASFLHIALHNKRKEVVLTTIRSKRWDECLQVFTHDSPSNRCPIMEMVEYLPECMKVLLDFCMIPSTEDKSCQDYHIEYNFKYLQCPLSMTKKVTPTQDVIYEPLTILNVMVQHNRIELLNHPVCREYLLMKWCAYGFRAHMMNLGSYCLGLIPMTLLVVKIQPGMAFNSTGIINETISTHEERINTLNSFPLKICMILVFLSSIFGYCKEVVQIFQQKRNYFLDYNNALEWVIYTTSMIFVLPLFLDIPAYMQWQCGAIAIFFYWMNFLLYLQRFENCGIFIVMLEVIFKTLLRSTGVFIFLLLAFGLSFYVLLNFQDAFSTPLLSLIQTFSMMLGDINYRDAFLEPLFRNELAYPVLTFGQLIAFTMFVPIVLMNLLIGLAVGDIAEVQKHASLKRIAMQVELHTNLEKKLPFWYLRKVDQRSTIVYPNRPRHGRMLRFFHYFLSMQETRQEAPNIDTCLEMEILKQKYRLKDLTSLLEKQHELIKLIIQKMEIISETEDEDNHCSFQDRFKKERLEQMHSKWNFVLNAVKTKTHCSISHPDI

SMILES: CC(C)c1ccc(NC(=O)Cn2cnc3c2c(=O)n(C)c(=O)n3C)cc1
- IC50 [1]: 6.9 µM
- inhibition (Homo sapiens [2]): 40%
- IC50 [3]: 6.9 µM
- inhibition [4]: 33%
- inhibition (Homo sapiens [5]): 37%

SMILES: Cc1nc(Nc2cccc3c2C[C@H](O)CC3)oc1-c1ccc(C(F)(F)F)cc1
- deltaT [6]: 0.9 °C
- deltaT [7]: 0.6 °C
- Activity [8]: Toxic

SMILES: CC(=N/O)/C(C)=C/c1ccc(Cl)cc1
- IC50 [1]: 8.8 µM
- IC50 [9]: 3.1 µM
- IC50 [3]: 6.9 µM

SMILES: NCC1(CC(=O)O)CCCCC1 [GABAPENTIN]
- Activity (Rattus norvegicus [10]): 50%
- Activity (Rattus norvegicus [11]): 50%
- Activity (Rattus norvegicus [12]): 50%

From ChEMBL document CHEMBL5678803, “Selective blockade of TRPA1 channel attenuates pathological pain without altering noxious cold sensation or body temperature regulation” (Pain, 2011)
